Measurements as given in US10118922B2 (Janssen Pharmaceutica NV, priority 2013, dated 2018).

How the values were obtained:
[1] = target: T1, long form of human GPR120 (Homo sapiens, UniProt Q5NUL3); assay: Human GPR120 DiscoveRx PathHunter beta-arrestin assay, Procedure β-arrestin A; format: cell-based; conditions: PathHunter CHO-K1 GPR120 β-Arrestin cells, 3000 cells per well; read-out: hGPR120 β-arrestin A EC50
T1 construct: host or cells: PathHunter CHO-K1 GPR120 β-Arrestin Cell Line
T1 sequence (Q5NUL3 1-377 isoform Q5NUL3-1): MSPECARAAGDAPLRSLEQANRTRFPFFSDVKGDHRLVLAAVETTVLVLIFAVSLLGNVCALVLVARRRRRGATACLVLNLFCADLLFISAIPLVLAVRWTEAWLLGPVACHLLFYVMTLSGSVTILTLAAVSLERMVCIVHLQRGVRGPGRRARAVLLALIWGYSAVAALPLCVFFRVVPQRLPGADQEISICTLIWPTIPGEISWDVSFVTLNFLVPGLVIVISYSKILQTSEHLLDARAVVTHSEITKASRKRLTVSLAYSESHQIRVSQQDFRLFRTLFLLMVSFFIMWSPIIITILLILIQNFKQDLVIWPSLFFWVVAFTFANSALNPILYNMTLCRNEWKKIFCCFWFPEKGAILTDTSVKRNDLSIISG
Text: The binding of an agonist (medium/long chain fatty acids or small molecule agonists) to the G-protein-coupled receptor GPR120 activates phospholipase C, leading to release of intracellular Ca^+2 through the generation of inositol 1,4,5-trisphosphate (InsP3 or IP3). GPR120 activation can also trigger intracellular signaling via recruitment of Beta-Arrestin. In the present method, agonist-induced activation of the human GPR120 receptor is monitored through the use of PathHunter CHO-K1 GPR120 Beta-Arrestin Cell Line engineered by DiscoveRx, as detailed below. The cell lines are designed to co-express both the ProLink/Enzyme Donor (PK)-tagged GPCR and the Enzyme […] (EA)-tagged Beta-Arrestin fusion proteins. Upon GPR120 receptor stimulation/activation, the EA-tagged Beta-Arrestin portion is translocated to the tagged receptor, where the two enzyme fragments are brought within close proximity. Under these conditions, these fragments can interact and form an active Beta-gal enzyme complex through Enzyme Fragment Complementation (EFC). […] This in vitro assay therefore serves to assess compound agonist activity of the GPR120.
In Procedure β-arrestin A, the cell used were PathHunter CHO-K1 GPR120 β-Arrestin Cell Line, expressing the long form of human GPR120 (Genbank accession number NM_181745), with 3000 cells per well.
The selected CHO-K1 GPR120 β-Arrestin cells were cultured in Ham's F12 media supplemented with 10% fetal bovine serum (FBS), 1% Glutamine, 1×p/s, 800 μg/mL G418 and 300 μg/mL Hygromycin B (for selection). Cell stocks were maintained and grown in a sub-confluent state using standard cell culture procedures. The day before the experiment, the cells were harvested with non-enzymatic cell dissociation buffer and re-suspended in complete growth media at the desired concentration. […] The seeded plates were incubated overnight at 37° C.
On the day of the experiment, the Assay Buffer containing (a) HBSS with Ca^++ and Mg^++, (b) 20 mM HEPES, and (c) 0.1% BSA stabilizer (pH 7.4) was prepared. The growth medium was gently removed from the cell plates and 20 μL of Assay Buffer added to each well. The plate was then incubated at 37° C. for 60 min. […] Five μL of compound dilution was then added to each well and the plate incubated at 37° C. for 90 min. The detection reagents were prepared according to the manufacture's instruction. Twelve μL of the detection reagents were added to each well and the plate incubated at room temperature for 60 min.
The % activity relative to the positive control was calculated using the following equation:
The Fitting Equation was: Y=Bottom+(Top-Bottom)/(1+10^((Log EC50−X)*HillSlope)), where X is the log of the concentration and Y is the response.

Human GPR120 short form = target: T2, Human GPR120 short form (Homo sapiens, UniProt Q5NUL3); assay: Human GPR120 calcium flux assay, Procedure Calcium A; format: cell-based; conditions: HEK-293 cells, FLIPR, 2500 cells/well; read-out: GPR120 Ca2+ Assay A EC50
T2 construct: expressed in transfected cells
T2 sequence (Q5NUL3 1-361): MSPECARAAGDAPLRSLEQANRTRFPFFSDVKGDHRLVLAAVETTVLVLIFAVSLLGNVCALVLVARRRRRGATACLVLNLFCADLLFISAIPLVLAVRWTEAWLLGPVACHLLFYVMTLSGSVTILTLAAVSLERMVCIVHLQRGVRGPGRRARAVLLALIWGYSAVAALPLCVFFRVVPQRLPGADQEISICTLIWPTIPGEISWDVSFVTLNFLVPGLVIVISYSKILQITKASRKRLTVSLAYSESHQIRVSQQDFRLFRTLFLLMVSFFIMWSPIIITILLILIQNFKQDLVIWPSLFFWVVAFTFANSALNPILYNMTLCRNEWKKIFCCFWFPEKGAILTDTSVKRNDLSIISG
Procedure: These cells are first loaded with the Ca^+2 sensitive dye, Fluo-4 NR. Upon stimulation, intracellular released Ca^+2 can bind to the dye and alter its fluorescence intensity. This increase in fluorescence signal, and thus the flux in intracellular [Ca^2+], is detected and quantitated by fluorescence imaging using a FLIPR reader. The effect of the agonist is measured as a function of concentration and used to calculate an EC50 based upon a response curve.
In this procedure 2500 cells/well were employed.
A Human GPR120 clone (Genbank accession number NM_001195755.1) was placed into the pcDNA3.1 mammalian expression vector carrying the neomycin resistance gene. A stable mammalian cell was generated by placing the above clone into a HEK293 background. […] Cells were split 2 times a week to keep the cells in the log-phase growth.
In preparation for the assay, HEK cells stably transfected with Human GPR120 (2.5K cells per well in 25 uL growth medium) were seeded into 384-well plates and then incubated overnight (37° C., 5% CO2). The next day, the media was changed to 20 μL assay buffer and the cell starved for 1 h at 37° C. The dye loading solution (2× dye) was prepared using 10 mL assay buffer, 100 μL of 250 mM probenecid, 1 bottle of Component A, and 20 μl of dye in DMSO. Twenty μL of the 2× dye loading buffer was then added to each well. The plates were incubated at 37° C. for 30 min, then at room temperature for an additional 15 minutes, before performing the assay on FLIPR.
The assay was performed on a FLIPR plate reader using the following parameters. Baseline was read for 10 seconds at 1 sec intervals. The program was set to transfer 10 μL of ligand from compound plate to cell plate after baseline reading. Aspiration was executed at: 10 μL/sec speed, 4.6 μL height; Dispensing was executed at: 30 μL/sec speed, 45 μL height. After compound addition, each well was read for 300 sec, with measurements collected at 1 sec intervals.
The kinetic data from the FLIPR was based upon a 5 minute window for data collection. The fluorescence of each sample well was used for individual calculations of a normalized RFU value, which was defined as maximum response minus the minimum response. […] The Fitting Equation was: Y=Bottom+(Top-Bottom)/(1+10^((Log EC50−X)*HillSlope)), where X is the log of the concentration and Y is the response.

Row | EC50 [1] | EC50 (Human GPR120 short form) | Compound
1 | 97 nM | 30 nM | O=C(O)CCc1cc(F)c(OCc2sc(Cl)cc2-c2ccc(Cl)cc2)c(F)c1 [Cpd 2, 3-(4-{[5-Chloro-3-(4-chlorophenyl)thiophen-2-yl]methoxy}-3,5-difluorophenyl)propanoic acid]
2 | 431 nM | 50 nM | Cc1sc(-c2ccccc2)c(COc2ccc(CCC(=O)O)c(C)c2C)c1C(F)(F)F [Cpd 33, 3-(2,3-Dimethyl-4-{[5-methyl-2-phenyl-4-(trifluoromethyl)thiophen-3-yl]methoxy}phenyl)propanoic acid]
3 | 28 nM | 50 nM | OCCCc1cc(F)c(OCc2c(Cl)nsc2-c2ccc(Cl)cc2)c(F)c1 [Cpd 78, 3-(4-{[3-Chloro-5-(4-chlorophenyl)isothiazol-4-yl]methoxy}-3,5-difluorophenyl)propan-1-ol]
